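These data come from cells grown in 96-well plates and exposed to compound for 48 hours at five concentrations. GI50: concentration for 50% inhibition of growth.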 Calls of active or inactive are those of the source. Cut-off read from the data, not from the text of the source: active = GI50 up to about 1.1 µM and inactive = higher.
Legend:
Experiment in all cases: growth of human tumour cells (NCI), 48 h
[1] = system: OVCAR-5
[2] = system: NCI-H460
[3] = system: HCC 2998
[4] = system: HL-60
[5] = system: K562
[6] = system: HT-29
[7] = system: DU-145
[8] = system: T47D
[9] = system: HCT-15
[10] = system: HOP-92
[11] = system: A549
[12] = system: SF-539
[13] = system: Hs-578T
[14] = system: SNB-75
[15] = system: NCI-H226
[16] = system: MOLT-4
[17] = system: UO-31
[18] = system: HCT-116
[19] = system: A498
[20] = system: SR
[21] = system: MCF7
[22] = system: MDA-N
[23] = system: SN12C
[24] = system: EKVX
[25] = system: CCRF-CEM
[26] = system: ACHN
[27] = system: NCI-H522
[28] = system: UACC-62
[29] = system: SK-MEL-28
[30] = system: M14
[31] = system: MDA-MB-435
[32] = system: Malme-3M
[33] = system: HOP-62
[34] = system: MDA-MB-231
[35] = system: SK-OV-3
[36] = system: RPMI-8226
[37] = system: SF-268
[38] = system: U-251
[39] = system: IGROV-1
[40] = system: OVCAR-4
[41] = system: UACC-257
[42] = system: PC-3
[43] = system: SW-620
[44] = system: OVCAR-8
[45] = system: NCI/ADR-RES
[46] = system: SNB-19
[47] = system: SK-MEL-5
[48] = system: TK-10
[49] = system: COLO 205
[50] = system: 786-0
[51] = system: KM12
[52] = system: SF-295

O=C1C(Cl)=C(N2CCN(CCOCCO)CC2)C(=O)c2c(O)ccc(O)c21
GI50 [1]: 2.38 µM (inactive) | GI50 [2]: 3.08 µM (inactive) | GI50 [3]: 3.28 µM (inactive) | GI50 [4]: 0.0272 µM (active) | GI50 [5]: 0.104 µM (active) | GI50 [6]: 0.64 µM (active) | GI50 [7]: 2.65 µM (inactive) | GI50 [8]: 0.458 µM (active) | GI50 [9]: 0.453 µM | GI50 [10]: 0.422 µM (active) | GI50 [11]: 2.77 µM (inactive) | GI50 [12]: 1.66 µM (inactive) | GI50 [13]: 2.1 µM (inactive) | GI50 [14]: 1.77 µM (inactive) | GI50 [15]: 1.75 µM (inactive) | GI50 [16]: 0.0869 µM (active)

CCCCCOP(=O)(OCCCCC)C(NC(C)=O)(C(=O)OCC)C(F)(F)F (stereo not drawn)
GI50 [17]: > 100 µM (inactive) | GI50 [18]: > 100 µM (inactive) | GI50 [19]: > 100 µM (inactive) | GI50 [20]: > 100 µM (inactive) | GI50 [21]: > 100 µM (inactive) | GI50 [3]: > 100 µM (inactive) | GI50 [22]: > 100 µM (inactive) | GI50 [4]: > 100 µM (inactive) | GI50 [5]: > 100 µM (inactive) | GI50 [23]: > 100 µM (inactive) | GI50 [6]: > 100 µM (inactive) | GI50 [7]: > 100 µM (inactive) | GI50 [8]: > 100 µM (inactive) | GI50 [24]: > 100 µM (inactive) | GI50 [25]: > 100 µM (inactive) | GI50 [26]: > 100 µM (inactive) | GI50 [9]: > 100 µM | GI50 [27]: > 100 µM (inactive) | GI50 [28]: > 100 µM (inactive) | GI50 [12]: > 100 µM (inactive) | GI50 [29]: > 100 µM (inactive) | GI50 [30]: > 100 µM (inactive) | GI50 [31]: > 100 µM (inactive) | GI50 [32]: > 100 µM (inactive) | GI50 [33]: > 100 µM (inactive) | GI50 [34]: > 100 µM (inactive) | GI50 [35]: > 100 µM (inactive) | GI50 [14]: > 100 µM (inactive) | GI50 [36]: > 100 µM (inactive) | GI50 [16]: > 100 µM (inactive) | GI50 [37]: > 100 µM (inactive) | GI50 [38]: > 100 µM (inactive)

COc1ccc(C(=CCC(C)C2CCC3[C@@H]4C(OC(C)=O)CC5CC(OC(C)=O)CC[C@]5(C)C4CC(OC(C)=O)[C@]23C)c2ccc(OC)cc2)cc1 (stereo partly drawn)
GI50 [17]: 47.4 µM (inactive) | GI50 [1]: 72.8 µM (inactive) | GI50 [2]: 55.2 µM (inactive) | GI50 [18]: 66.1 µM (inactive) | GI50 [20]: 19.5 µM (inactive) | GI50 [21]: 20.3 µM (inactive) | GI50 [3]: > 100 µM (inactive) | GI50 [39]: > 100 µM (inactive) | GI50 [40]: 19.1 µM (inactive) | GI50 [4]: 8.02 µM (inactive) | GI50 [5]: 67.8 µM (inactive) | GI50 [23]: > 100 µM (inactive) | GI50 [41]: 99.5 µM (inactive) | GI50 [6]: > 100 µM (inactive) | GI50 [42]: 19.5 µM (inactive) | GI50 [8]: 41 µM (inactive) | GI50 [24]: > 100 µM (inactive) | GI50 [43]: 91.4 µM (inactive) | GI50 [25]: 27.1 µM (inactive) | GI50 [44]: > 100 µM (inactive) | GI50 [45]: 80.7 µM (inactive) | GI50 [26]: 37.3 µM (inactive) | GI50 [9]: 86.5 µM | GI50 [46]: > 100 µM (inactive) | GI50 [11]: > 100 µM (inactive) | GI50 [27]: 23.8 µM (inactive) | GI50 [47]: > 100 µM (inactive) | GI50 [12]: 97.7 µM (inactive) | GI50 [29]: 83.8 µM (inactive) | GI50 [30]: 19.1 µM (inactive) | GI50 [31]: 77.1 µM (inactive) | GI50 [48]: > 100 µM (inactive) | GI50 [33]: > 100 µM (inactive) | GI50 [34]: > 100 µM (inactive) | GI50 [13]: > 100 µM (inactive) | GI50 [35]: > 100 µM (inactive) | GI50 [49]: > 100 µM (inactive) | GI50 [14]: 34.8 µM (inactive) | GI50 [50]: > 100 µM (inactive) | GI50 [51]: 76.6 µM (inactive) | GI50 [52]: > 100 µM (inactive) | GI50 [36]: 29.2 µM (inactive) | GI50 [16]: 17.1 µM (inactive) | GI50 [37]: > 100 µM (inactive) | GI50 [38]: > 100 µM (inactive)

Source: ChEMBL document CHEMBL1201862, “PubChem BioAssay data set” (2004)
